How the values were obtained:
hTLR7 = molecular target: T1, hTLR7 (Homo sapiens, UniProt Q9NYK1); experiment: Activation activity test of hTLR7 (HEK-Blue hTLR7 cells, QUANTI-Blue OD650); format: cell-based; conditions: 24 hours incubation, read-out: TLR7 (EC50)
T1 construct: host or cells: HEK-Blue hTLR7 (HEK293-derived reporter line)
T1 sequence (Q9NYK1 27-1049): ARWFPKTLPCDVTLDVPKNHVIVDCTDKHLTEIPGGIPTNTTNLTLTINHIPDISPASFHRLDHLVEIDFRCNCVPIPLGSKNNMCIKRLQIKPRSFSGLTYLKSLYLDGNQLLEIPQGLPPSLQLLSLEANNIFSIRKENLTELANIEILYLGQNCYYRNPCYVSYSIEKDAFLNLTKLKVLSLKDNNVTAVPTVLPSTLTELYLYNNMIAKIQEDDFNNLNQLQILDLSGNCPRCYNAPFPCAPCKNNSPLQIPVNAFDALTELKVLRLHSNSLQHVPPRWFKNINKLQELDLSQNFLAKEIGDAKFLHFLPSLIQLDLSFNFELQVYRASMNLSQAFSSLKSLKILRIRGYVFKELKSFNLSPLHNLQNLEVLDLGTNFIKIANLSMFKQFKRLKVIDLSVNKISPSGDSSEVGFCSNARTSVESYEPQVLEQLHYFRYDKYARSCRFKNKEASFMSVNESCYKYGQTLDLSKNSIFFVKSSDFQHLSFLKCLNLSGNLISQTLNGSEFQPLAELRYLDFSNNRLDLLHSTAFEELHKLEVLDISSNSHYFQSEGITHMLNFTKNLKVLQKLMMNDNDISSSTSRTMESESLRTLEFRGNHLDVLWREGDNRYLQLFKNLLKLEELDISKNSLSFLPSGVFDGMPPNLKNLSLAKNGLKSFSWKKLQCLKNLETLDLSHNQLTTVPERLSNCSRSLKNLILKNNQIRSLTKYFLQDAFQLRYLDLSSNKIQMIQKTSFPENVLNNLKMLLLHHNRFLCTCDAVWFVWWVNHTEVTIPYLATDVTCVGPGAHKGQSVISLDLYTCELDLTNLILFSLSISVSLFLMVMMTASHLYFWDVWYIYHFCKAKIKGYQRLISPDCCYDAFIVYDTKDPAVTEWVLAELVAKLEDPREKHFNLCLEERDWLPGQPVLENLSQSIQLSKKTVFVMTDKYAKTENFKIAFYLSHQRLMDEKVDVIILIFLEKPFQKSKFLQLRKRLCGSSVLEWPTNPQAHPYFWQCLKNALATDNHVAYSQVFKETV
Description: (§1) Effect Example 1: Activation Activity Test of hTLR7 and hTLR8
(§2) Cell lines: HEK-Blue™ hTLR7 and HEK-Blue™ hTLR8 (InvivoGen Co.)
(§3) Primary reagents: QUANTI-Blue™ (InvivoGen) and ATPlite 1 Step (PerkinElmer)
(§4) Primary instruments: Automatic Liquid Handling Workstation (Labcyte, Model: Echo), Cell Counter (Countstar, IC1000) and Multifunctional Enzyme Marker (Molecular Device, Flexstation III).
(§5) 2.1 The tested compounds were formulated into a 60 mM concentrated stock solution in DMSO and stored in a nitrogen cabinet.
(§6) 2.3 The T150 cultured cells were taken out from the CO2 incubator and the cell culture supernatant was discarded. The cells were washed with PBS once, followed by addition of about 10 mL of the culture solution. The cells were dissociated by patting the cell culture flask, and gently blown to even by a pipette.
(§7) The cells were counted, and the cell suspension was adjusted to 200,000 cells/mL by the culture solution. Thereafter, 200 μL of diluted cells was added to each well in a 96-well plate containing the compound (40,000 cells/well).
(§8) 2.4 The compounds and cells were incubated in a 5% CO2 incubator at 37° C. for 24 hours.
(§9) 2.5 Compound activity assay: 20 μl of the cell supernatant of each well after induction was added to a cell culture plate containing 180 μL of reagent QUANTI-Blue™, and incubated at 37° C. for 1.5 hours. Thereafter, the optical density absorption (OD650) of each well at 650 nm was measured using a Multifunctional Enzyme Marker: Flexstation III.
(§10) 2.6 Compound Activity: OD650 values were analyzed using GraphPad Prism software and the dose-response curves for the compound were fitted to calculate the EC50 values of the compound.

hTLR8 = molecular target: T2, hTLR8 (Homo sapiens, UniProt Q9NR97); experiment: Activation activity test of hTLR8 (HEK-Blue hTLR8 cells, QUANTI-Blue OD650); format: cell-based; conditions: HEK-Blue hTLR8 cells, 24 hours incubation; read-out: TLR8 (EC50)
T2 construct: host or cells: HEK-Blue hTLR8 (HEK293-derived reporter line)
T2 sequence (Q9NR97 27-1041): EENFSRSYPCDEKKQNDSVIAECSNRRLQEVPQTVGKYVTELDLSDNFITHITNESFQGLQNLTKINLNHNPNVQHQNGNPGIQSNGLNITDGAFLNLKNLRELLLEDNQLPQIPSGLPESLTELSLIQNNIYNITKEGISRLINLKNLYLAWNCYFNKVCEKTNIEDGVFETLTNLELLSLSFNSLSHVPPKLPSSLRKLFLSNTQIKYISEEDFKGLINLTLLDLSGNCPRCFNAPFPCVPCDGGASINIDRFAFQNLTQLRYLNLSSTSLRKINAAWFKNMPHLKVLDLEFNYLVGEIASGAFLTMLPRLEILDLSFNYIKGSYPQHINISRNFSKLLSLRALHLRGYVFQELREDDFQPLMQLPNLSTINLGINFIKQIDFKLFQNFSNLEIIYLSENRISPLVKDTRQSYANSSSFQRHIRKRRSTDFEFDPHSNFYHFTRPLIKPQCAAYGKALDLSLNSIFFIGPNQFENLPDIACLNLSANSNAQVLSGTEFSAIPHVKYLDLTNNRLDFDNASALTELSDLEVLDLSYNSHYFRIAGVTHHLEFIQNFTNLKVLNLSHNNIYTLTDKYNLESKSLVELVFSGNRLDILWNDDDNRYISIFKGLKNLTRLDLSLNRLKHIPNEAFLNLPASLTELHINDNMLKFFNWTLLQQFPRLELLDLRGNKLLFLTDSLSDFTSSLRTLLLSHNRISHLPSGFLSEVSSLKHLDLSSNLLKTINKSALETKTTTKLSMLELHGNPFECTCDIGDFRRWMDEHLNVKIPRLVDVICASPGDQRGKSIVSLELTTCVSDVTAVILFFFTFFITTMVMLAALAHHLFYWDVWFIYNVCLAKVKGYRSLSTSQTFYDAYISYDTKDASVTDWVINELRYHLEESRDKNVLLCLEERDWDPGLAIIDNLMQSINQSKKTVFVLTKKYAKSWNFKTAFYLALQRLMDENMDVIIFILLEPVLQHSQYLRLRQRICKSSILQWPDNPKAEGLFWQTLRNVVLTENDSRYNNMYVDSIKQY
Description: as §1, §2, §3, §4, §5, §6, §7, §8, §9, §10

Row | Compound | EC50 (hTLR7) [µM] | EC50 (hTLR8) [µM]
1 | COCCOCCOc1ncc2[nH]c(=O)n(Cc3cccc(CN4CCCC4)c3)c2n1 [Example 30, 2-(2-(2-methoxyethoxy)ethoxy)-9-(3-(pyrrolidin-1-ylmethyl)benzyl)-7,9-dihydro-8H-purin-8-one] | > 100 | > 100
2 | COCCOc1ncc2[nH]c(=O)n(Cc3ccc(CN4CCCCCC4)cc3)c2n1 [Example 4, 2-(2-methoxyethoxy)-9-(4-(azepan-1-ylmethyl)benzyl)-7,9-dihydro-8H-purin-8-one] | 1 to 10 | > 100
3 | COCCCCOc1ncc2[nH]c(=O)n(Cc3ccc(CN4CCCC4)cc3)c2n1 [Example 47, 9-(4-(pyrrolidin-1-ylmethyl)benzyl)-2-(4-methoxybutoxy)-7,9-dihydro-8H-purin-8-one] | 1 to 10 | > 100
4 | COCCOc1ncc2[nH]c(=O)n(Cc3cccc(CN4CCCCCC4)c3)c2n1 [Example 21, 2-(2-methoxyethoxy)-9-(3-(azepan-1-ylmethyl)benzyl)-7,9-dihydro-8H-purin-8-one] | 10 to 100 | > 100
5 | COCCOc1ncc2[nH]c(=O)n(Cc3cccc(CN4CCC4)c3)c2n1 [Example 19, 2-(2-methoxyethoxy)-9-(3-(azetidin-1-ylmethyl)benzyl)-7,9-dihydro-8H-purin-8-one] | 1 to 10 | > 100
6 | O=c1[nH]c2cnc(OCCCOC(F)(F)F)nc2n1Cc1ccc(CN2CCCC2)cc1 [Example 50, 9-(4-(pyrrolidin-1-ylmethyl)benzyl)-2-(3-(trifluoromethoxy)propoxy)-7,9-dihydro-8H-purin-8-one] | 0.001 to 1 | > 100
7 | COCCOc1ncc2[nH]c(=O)n(Cc3ccc(CN4CCC4)cc3)c2n1 [Example 2, 2-(2-methoxyethoxy)-9-(4-(azetidin-1-ylmethyl)benzyl)-7,9-dihydro-8H-purin-8-one] | 10 to 100 | > 100
8 | COCCCOc1ncc2[nH]c(=O)n(Cc3ccc(CN4CCCC4)cc3)c2n1 [Example 45, 9-(4-(pyrrolidin-1-ylmethyl)benzyl)-2-(3-methoxypropoxy)-7,9-dihydro-8H-purin-8-one] | 0.001 to 1 | > 100
9 | COCCOc1ncc2[nH]c(=O)n(Cc3cccc(CN4CCCCC4)c3)c2n1 [Example 20, 2-(2-methoxyethoxy)-9-(3-(piperidin-1-ylmethyl)benzyl)-7,9-dihydro-8H-purin-8-one] | 10 to 100 | > 100
10 | COCCOc1ncc2[nH]c(=O)n(Cc3cccc(C(C)N4CCCC4)c3)c2n1 (centres unmarked) [Example 26, 2-(2-methoxyethoxy)-9-(3-(1-(pyrrolidin-1-yl)ethyl)benzyl)-7,9-dihydro-8H-purin-8-one] | 10 to 100 | > 100
11 | CCCCOc1ncc2[nH]c(=O)n(Cc3ccc(CN4CCCC4)cc3)c2n1 [Example 66, 9-(4-(pyrrolidin-1-ylmethyl)benzyl)-2-butoxy-7,9-dihydro-8H-purin-8-one] | > 100 | > 100
12 | COCCOc1ncc2[nH]c(=O)n(Cc3ccc(CN4C[C@H]5CN(C)C[C@H]5C4)cc3)c2n1 [Example 12] | 1 to 10 | > 100
13 | COCCOc1ncc2[nH]c(=O)n(CCc3ccc(CN4CCCC4)cc3)c2n1 [Example 67, 9-(4-(pyrrolidin-1-ylmethyl)phenethyl)-2-(2-methoxyethoxy)-7,9-dihydro-8H-purin-8-one] | > 100 | > 100
14 | CCN(CC)Cc1ccc(Cn2c(=O)[nH]c3cnc(OCCOC)nc32)cc1 [Example 10] | 1 to 10 | > 100
15 | CCCC[S+]([O-])c1ncc2[nH]c(=O)n(Cc3cccc(CN4CCCC4)c3)c2n1 (centres unmarked) [Example 34, 2-butylsulfinyl-9-(3-(pyrrolidin-1-ylmethyl)benzyl)-7,9-dihydro-8H-purin-8-one] | > 100 | > 100
16 | O=c1[nH]c2cnc(OCC3CCCO3)nc2n1Cc1ccc(CN2CCCC2)cc1 (centres unmarked) [Example 46, 9-(4-(pyrrolidin-1-ylmethyl)benzyl)-2-((tetrahydrofuran-2-yl)methoxy)-7,9-dihydro-8H-purin-8-one] | 1 to 10 | > 100
17 | COCCOc1ncc2[nH]c(=O)n(Cc3ccc(CN4CC5CCC4C5)cc3)c2n1 (centres unmarked) [Example 13, 2-(2-methoxyethoxy)-9-(4-((2-aza-bicyclo[2,2,1]heptan-2-yl)methyl)benzyl)-7,9-dihydro-8H-purin-8-one] | 1 to 10 | > 100
18 | COCCOc1ncc2nc(N)n(Cc3ccc(CN4CCCC4)cc3)c2n1 [Example 61, 2-(2-methoxyethoxy)-9-(4-(pyrrolidin-1-ylmethyl)benzyl)-7,9-dihydro-8H-purin-8-amine] | 10 to 100 | > 100
19 | COCCOc1ncc2[nH]c(=O)n(Cc3ccc(C(C)N4CCCCCC4)cc3)c2n1 (centres unmarked) [Example 16, 2-(2-methoxyethoxy)-9-(4-(1-(azacycloheptane-1-yl)ethyl)benzyl)-7,9-dihydro-8H-purin-8-one] | 0.001 to 1 | > 100
20 | COCCOc1nc(F)c2[nH]c(=O)n(Cc3ccc(CN4CCCC4)cc3)c2n1 [Example 70, 6-fluoro-2-(2-methoxyethoxy)-9-(4-(pyrrolidin-1-ylmethyl)benzyl)-7,9-dihydro-8H-purin-8-one] | 10 to 100 | > 100
21 | COCCOc1ccc2[nH]c(=O)n(Cc3ccc(CN4CCCC4)cc3)c2n1 [Example 40, 5-(2-methoxyethoxy)-3-(4-(pyrrolidin-1-ylmethyl)benzyl)-1,3-dihydro-2H-imidazole[4,5-b]pyridin-2-one] | > 100 | > 100
22 | COCCOc1cc2c(cn1)[nH]c(=O)n2Cc1ccc(CN2CCCC2)cc1 [Example 39, 6-(2-methoxyethoxy)-1-(4-(pyrrolidin-1-ylmethyl)benzyl)-1,3-dihydro-2H-imidazole-[4,5-c]pyridin-2-one] | 10 to 100 | > 100
